Numbers after ± are expanded uncertainties.
Assay: xn = mol fraction of the nth substance listed
Conditions: 100 kPa, Liquid; for viscosity: Falling or rolling sphere viscometry; for speed of sound: Frequency=3 MHz, Single path-length method; for mass density: Vibrating tube method

CCCCn1cc[n+](C)c1.O=S(=O)([O-])C(F)(F)F [1-butyl-3-methylimidazolium trifluoromethanesulfonate] + CC#N
Conditions	mass density [kg/m3]	speed of sound [m/s]	viscosity [mPa·s]
298.15 K, x1 = 0.0911	958.58 ± 2	1306.2 ± 2.3	0.94 ± 0.2
298.15 K, x1 = 0.2023	1074.82 ± 2	1330.8 ± 2.3	1.74 ± 0.6
298.15 K, x1 = 0.3029	1137.12 ± 2.1	1347.2 ± 2.4	4.03 ± 0.6
298.15 K, x1 = 0.3998	1179 ± 2.1	1359.4 ± 2.4	6.63 ± 0.6
298.15 K, x1 = 0.4994	1211.16 ± 2.1	1368.6 ± 2.5	11.09 ± 0.81
298.15 K, x1 = 0.5953	1234.14 ± 2.2	1375.6 ± 2.6	19.01 ± 0.83
298.15 K, x1 = 0.7029	1255.85 ± 2.2	1382.5 ± 2.6	29.57 ± 0.86
298.15 K, x1 = 0.8009	1271.78 ± 2.3	1386.6 ± 2.7	40.36 ± 0.93
298.15 K, x1 = 0.9012	1285.59 ± 2.3	1389.8 ± 2.8	56.57 ± 0.99
298.15 K, x1 = 1	1297.46 ± 2.4	1393.2 ± 2.8	82.38 ± 1.7
303.15 K, x1 = 0.0911	954.576 ± 2	1289.2 ± 2.3	0.88 ± 0.2
303.15 K, x1 = 0.2023	1070.41 ± 2	1315.6 ± 2.3	1.61 ± 0.6
303.15 K, x1 = 0.3029	1132.76 ± 2.1	1333 ± 2.4	3.64 ± 0.6
303.15 K, x1 = 0.3998	1174.94 ± 2.1	1346.1 ± 2.4	5.9 ± 0.6
303.15 K, x1 = 0.4994	1207.1 ± 2.1	1355.7 ± 2.5	9.65 ± 0.61
303.15 K, x1 = 0.5953	1230.08 ± 2.2	1363.1 ± 2.6	16.22 ± 0.82
303.15 K, x1 = 0.7029	1251.97 ± 2.2	1370.6 ± 2.6	24.73 ± 0.85
303.15 K, x1 = 0.8009	1267.97 ± 2.3	1374.9 ± 2.7	33.14 ± 0.89
303.15 K, x1 = 0.9012	1281.58 ± 2.3	1378.4 ± 2.8	45.89 ± 0.97
303.15 K, x1 = 1	1293.46 ± 2.4	1382.8 ± 2.8	66.69 ± 1.2
308.15 K, x1 = 0.0911	949.838 ± 2	1272.1 ± 2.3	0.83 ± 0.2
308.15 K, x1 = 0.2023	1066.01 ± 2	1300.6 ± 2.3	1.58 ± 0.6
308.15 K, x1 = 0.3029	1128.52 ± 2.1	1318.8 ± 2.4	3.3 ± 0.6
308.15 K, x1 = 0.3998	1170.95 ± 2.1	1332.8 ± 2.4	5.26 ± 0.6
308.15 K, x1 = 0.4994	1202.79 ± 2.1	1343 ± 2.5	8.46 ± 0.61
308.15 K, x1 = 0.5953	1225.98 ± 2.2	1350.7 ± 2.6	13.86 ± 0.81
308.15 K, x1 = 0.7029	1247.9 ± 2.2	1358.8 ± 2.6	20.9 ± 0.83
308.15 K, x1 = 0.8009	1264.18 ± 2.3	1363.4 ± 2.7	27.82 ± 0.86
308.15 K, x1 = 0.9012	1277.73 ± 2.3	1367 ± 2.8	37.7 ± 0.92
308.15 K, x1 = 1	1289.47 ± 2.4	1371.7 ± 2.8	52.86 ± 0.96
313.15 K, x1 = 0.0911	944.8 ± 2	1255.1 ± 2.3	0.79 ± 0.2
313.15 K, x1 = 0.2023	1061.34 ± 2	1285.5 ± 2.3	1.48 ± 0.6
313.15 K, x1 = 0.3029	1124.17 ± 2.1	1304.8 ± 2.4	3.01 ± 0.6
313.15 K, x1 = 0.3998	1166.71 ± 2.1	1319.6 ± 2.4	4.73 ± 0.6
313.15 K, x1 = 0.4994	1198.75 ± 2.1	1330.3 ± 2.5	7.48 ± 0.61
313.15 K, x1 = 0.5953	1221.91 ± 2.2	1338.4 ± 2.6	12.06 ± 0.81
313.15 K, x1 = 0.7029	1243.95 ± 2.2	1347 ± 2.6	17.91 ± 0.82
313.15 K, x1 = 0.8009	1260.12 ± 2.3	1352 ± 2.7	23.51 ± 0.84
313.15 K, x1 = 0.9012	1273.98 ± 2.3	1355.8 ± 2.8	31.45 ± 0.88
313.15 K, x1 = 1	1285.47 ± 2.4	1360.7 ± 2.8	43.67 ± 0.96
318.15 K, x1 = 0.0911	939.614 ± 2	1238.2 ± 2.3	0.75 ± 0.2
318.15 K, x1 = 0.2023	1057.1 ± 2	1270.6 ± 2.3	1.4 ± 0.6
318.15 K, x1 = 0.3029	1120.05 ± 2.1	1290.8 ± 2.4	2.75 ± 0.6
318.15 K, x1 = 0.3998	1162.77 ± 2.1	1306.4 ± 2.4	4.26 ± 0.6
318.15 K, x1 = 0.4994	1194.47 ± 2.1	1317.7 ± 2.5	6.65 ± 0.6
318.15 K, x1 = 0.5953	1217.75 ± 2.2	1326.2 ± 2.6	10.56 ± 0.81
318.15 K, x1 = 0.7029	1240.12 ± 2.2	1335.4 ± 2.6	15.52 ± 0.82
318.15 K, x1 = 0.8009	1256.17 ± 2.3	1340.7 ± 2.7	20.16 ± 0.83
318.15 K, x1 = 0.9012	1270.02 ± 2.3	1344.7 ± 2.8	26.58 ± 0.86
318.15 K, x1 = 1	1281.47 ± 2.4	1349.9 ± 2.8	36.29 ± 0.92
323.15 K, x1 = 0.0911	934.671 ± 2	1221.3 ± 2.3	0.71 ± 0.2
323.15 K, x1 = 0.2023	1052.93 ± 2	1255.8 ± 2.3	1.32 ± 0.6
323.15 K, x1 = 0.3029	1115.71 ± 2.1	1276.9 ± 2.4	2.54 ± 0.6
323.15 K, x1 = 0.3998	1158.5 ± 2.1	1293.4 ± 2.4	3.88 ± 0.6
323.15 K, x1 = 0.4994	1190.69 ± 2.1	1305.2 ± 2.5	5.95 ± 0.6
323.15 K, x1 = 0.5953	1213.78 ± 2.2	1314 ± 2.6	9.33 ± 0.61
323.15 K, x1 = 0.7029	1236.14 ± 2.2	1323.8 ± 2.6	13.54 ± 0.81
323.15 K, x1 = 0.8009	1252.29 ± 2.3	1329.5 ± 2.7	17.4 ± 0.82
323.15 K, x1 = 0.9012	1266.17 ± 2.3	1333.7 ± 2.8	22.66 ± 0.84
323.15 K, x1 = 1	1277.48 ± 2.4	1338.8 ± 2.8	30.57 ± 0.88
